Data published in patent US20220324862A1, “PYRIDOPYRIMIDINONE COMPOUNDS” (Acerand Therapeutics (USA) Limited, priority 2021, published 2022).

What follows are compounds tested against T1, protein-protein interaction between SOS1 and KRAS-G12D (Homo sapiens, UniProt Q07889) (assay: HTRF Based Protein-Protein Interaction Assay). Settings: HTRF; GST-SOS1 2.5 nM, KRAS-G12D 100 nM, GDP 10 uM; read-out: IC50 value, inhibition of SOS1/KRAS-G12D protein-protein interaction.
T1 construct: The purified GST-SOS1 catalytic domain (residues 564-1049) was first diluted in assay buffer; made in house; host or cells: E. coli BL21 (DE3) for SOS1; E. coli BL21 carrying a BirA plasmid for KRAS-G12D
T1 sequence (Q07889 564-1049): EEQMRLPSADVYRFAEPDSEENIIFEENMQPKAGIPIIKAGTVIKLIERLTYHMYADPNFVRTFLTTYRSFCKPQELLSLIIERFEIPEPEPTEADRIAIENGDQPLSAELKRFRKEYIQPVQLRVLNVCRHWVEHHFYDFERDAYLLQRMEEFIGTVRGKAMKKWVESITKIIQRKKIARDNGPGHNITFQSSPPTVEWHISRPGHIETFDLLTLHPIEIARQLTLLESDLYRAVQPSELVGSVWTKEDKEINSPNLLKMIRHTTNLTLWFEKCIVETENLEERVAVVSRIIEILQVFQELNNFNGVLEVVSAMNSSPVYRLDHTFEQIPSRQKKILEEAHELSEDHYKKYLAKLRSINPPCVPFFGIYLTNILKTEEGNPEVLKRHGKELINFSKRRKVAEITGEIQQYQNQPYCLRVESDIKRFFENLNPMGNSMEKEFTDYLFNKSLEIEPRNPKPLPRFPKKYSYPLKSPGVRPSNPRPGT
Type: binding
Description: A KRAS-G12D and SOS1 binding/interaction assay was designed to measure the interaction between KRAS-G12D and SOS1 proteins. Utilizing HTRF (Homogeneous Time-Resolved Fluorescence) technology, the assay enabled simple and rapid characterization of compound and protein interaction in a high throughput format. This assay was used to examine potency of the compounds in inhibiting the protein-protein interaction between SOS1 and KRAS-G12D. […] Low IC50 values are indicative of high potency of the SOS1 inhibitor compound to disrupt SOS1 and Kras-G12D interaction.
Protein Expression and Purification. The corresponding gene sequence to human SOS1 (residues 564-1049, UniProt ID: Q07889; SEQ ID NO: 2) was synthesized and fused in frame with GST expression vector. After the desired sequence was confirmed, plasmid containing the sequence was transformed into the E. coli strain BL21 (DE3). Bacteria were growing at 37° C. in LB media containing 50 μg/ml Kanamycin to give OD600 of 0.6-0.8. Then 0.2 mM IPTG was added to induce protein expression for 16 hours at 17° C. Bacteria were harvested by centrifugation and stored at −80° C. Bacteria pellets were resuspended in lysis buffer (25 mM Tris-HCl, 500 mM NaCl, 2 mM DTT, 2.3% sucrose, 0.3% dextran-10, 1 mM PMSF, pH 7.5) and lysed using high-pressure homogenizer. The lysate was cleared by centrifugation for 30 minutes (12000 rpm at 4° C.). The supernatant containing GST-SOS1 fragment was purified sequentially through Glutathione column and gel filtration (Hiload 16/600 Superdex […] column, Cytiva). The purified GST-SOS1 fragment was confirmed by SDS-PAGE and stored in 25 mM Tris-HCl, 100 mM NaCl, 1 mM DTT, 2.3% sucrose, 0.3% dextran-10, pH 7.5 at −80° C.
Kras-G12D Protein Purification. The sequence corresponding to human KRAS-G12D (residues 1-169, UniProt P01116-2; SEQ ID NO: 1) was synthesized and fused in frame with His-AVI-TEV vector. The plasmid was transformed into the E. coli strain BL21 (containing a plasmid that can generate BirA enzyme). Bacteria were growing at 37° C. in TB media containing 100 μg/ml ampicillin and 50 μg/ml Kanamycin to give OD600 of 0.6-0.8. The 0.5 mM IPTG and 50 mg/l biotin were added to induce protein expression for 16 hours at 25° C. Bacteria were harvested by centrifugation and stored at −80° C. Bacteria pellets were re-suspended in lysis buffer (20 mM Tris-HCl, 500 mM NaCl, 5 mM MgCl2, 2 mM […], 5% glycerol, pH 8.0) and lysed using high-pressure homogenizer. The lysate was cleared by centrifugation for 30 minutes (12000 rpm at 4° C.). The supernatant containing HIS-AVI-TEV-KRAS-G12D fragment was purified sequentially through Ni-NTA column (SMART), Streptactin column (SMART), and gel filtration (Hiload 16/600 Superdex 75 pg, GE). The purified HIS-AVI-TEV-KRAS-G12D fragment was confirmed by SDS-PAGE and stored in 50 mM HEPES-NaOH, 100 mM NaCl, 1 mM DTT, 5 mM MgCl2, pH 7.5 at −80° C.
Protein-Protein Interaction Assay. An assay buffer containing 50 mM HEPES, pH 7.5, 50 mM NaCl, 0.01% Brij-35, 1 mM TCEP, 0.1% BSA was prepared, and concentration series of test compounds were generated spanning from 0.5 nM to 10 μM over 10 3-fold serial dilutions in a 384-well assay plate at a volume of 20 pL. The purified GST-SOS1 catalytic domain (residues 564-1049) was first diluted in assay buffer and 5 μl of SOS1 (final concentration 2.5 nM in assay mixture) was directly dispensed into compound plates. After a spin down at 1000 RPM for 30 seconds, the SOS1/compound mixture was incubated at 25° C. for 15 minutes to allow the reaction between SOS1 and the compound. A KRAS-G12D mixture was prepared by incubation of avi-tagged Kras-G12D (residue 1-169) and GDP in assay buffer containing 10 mM MgCl2 at room temperature for 10 minutes. A KRAS-G12D and GDP mixture (5 μL) was added to the assay plate (final KRAS-G12D was 100 nM and GDP was 10 uM). The plate was centrifuged at 1000 rpm for 30 sec and incubated at 25° C. for 60 minutes. […]

IC50 | SMILES
< 0.1 µM | C#C[C@@H](Nc1nc(C)nc2cc(=O)n(C3(C)CC3)cc12)c1cccc(C(F)(F)F)c1C [Compound 18, (R)-2-methyl-4-((1-(2-methyl-3-(trifluoromethyl)phenyl)prop-2-yn-1-yl)amino)-6-(1-methylcyclopropyl)pyrido[4,3-d]pyrimidin-7(6H)-one]
< 0.1 µM | C#C[C@@H](Nc1nc(C)nc2cc(=O)n(C3CC(F)(F)C3)cc12)c1cccc(C(F)F)c1F [Compound 29, (R)-6-(3,3-difluorocyclobutyl)-4-((1-(3-(difluoromethyl)-2-fluorophenyl)prop-2-yn-1-yl)amino)-2-methylpyrido[4,3-d]pyrimidin-7(6H)-one]
< 0.1 µM | C#C[C@@H](Nc1nc(C)nc2cc(=O)n(C3CC(F)(F)C3)cc12)c1cccc(C(F)(F)F)c1C [Compound 11, (R)-6-(3,3-difluorocyclobutyl)-2-methyl-4-((1-(2-methyl-3-(trifluoromethyl)phenyl)prop-2-yn-1-yl)amino)pyrido[4,3-d]pyrimidin-7(6H)-one]
< 0.1 µM | C#C[C@@H](Nc1nc(C)nc2cc(=O)n(C3(C(F)F)CC3)cc12)c1cccc(C#N)c1F [Compound 42, (R)-3-(1-((6-(1-(difluoromethyl)cyclopropyl)-2-methyl-7-oxo-6,7-dihydropyrido[4,3-d]pyrimidin-4-yl)amino)prop-2-yn-1-yl)-2-fluorobenzonitrile]
< 0.1 µM | C=C[C@@H](Nc1nc(C)nc2cc(=O)n(C3(C)CC3)cc12)c1cccc(C(F)(F)F)c1C [Compound 22, (R)-2-methyl-4-((1-(2-methyl-3-(trifluoromethyl)phenyl)allyl)amino)-6-(1-methylcyclopropyl)pyrido[4,3-d]pyrimidin-7(6H)-one]
< 0.1 µM | C#C[C@@H](Nc1nc(C)nc2c(C)c(=O)n(C3(C)CC3)cc12)c1cccc(C(F)(F)F)c1C [Compound 28, (R)-2,8-dimethyl-4-((1-(2-methyl-3-(trifluoromethyl)phenyl)prop-2-yn-1-yl)amino)-6-(1-methylcyclopropyl)pyrido[4,3-d]pyrimidin-7(6H)-one]
< 0.1 µM | C#C[C@@H](Nc1nc(C)nc2cc(=O)n(C3(C)CCOC3)cc12)c1cccc(C(F)F)c1C (mixture of isomers) [Compound 13, 4-(((R)-1-(3-(difluoromethyl)-2-methylphenyl)prop-2-yn-1-yl)amino)-2-methyl-6-(3-methyltetrahydrofuran-3-yl)pyrido[4,3-d]pyrimidin-7(6H)-one]
< 0.1 µM | C#C[C@@H](Nc1nc(C)nc2c(F)c(=O)n(C3(C(F)F)CC3)cc12)c1cccc(C(F)F)c1F [Compound 27, (R)-4-((1-(3-(difluoromethyl)-2-fluorophenyl)prop-2-yn-1-yl)amino)-6-(1-(difluoromethyl)cyclopropyl)-8-fluoro-2-methylpyrido[4,3-d]pyrimidin-7(6H)-one]
< 0.1 µM | C#C[C@@H](Nc1nc(C)nc2cc(=O)n(C3(C)CC3)cc12)c1cccc(C(F)F)c1F [Compound 20, (R)-4-((1-(3-(difluoromethyl)-2-fluorophenyl)prop-2-yn-1-yl)amino)-2-methyl-6-(1-methylcyclopropyl)pyrido[4,3-d]pyrimidin-7(6H)-one]
< 0.1 µM | C#C[C@@H](Nc1nc(C)nc2cc(=O)n(C3(C#C)CC3)cc12)c1cccc(C(F)F)c1F [Compound 26, (R)-4-((1-(3-(difluoromethyl)-2-fluorophenyl)prop-2-yn-1-yl)amino)-6-(1-ethynlcyclopropyl)-2-methylpyrido [4,3-d]pyrimidin-7(6H)-one]
< 0.1 µM | C#C[C@@H](Nc1nc(C)nc2cc(=O)n([C@H]3C[C@H](F)C3)cc12)c1cccc(C(F)(F)F)c1C [Compound 10, 6-((1S,3S)-3-fluorocyclobutyl)-2-methyl-4-(((R)-1-(2-methyl-3-(trifluoromethyl)phenyl)prop-2-yn-1-yl)amino)pyrido[4,3-d]pyrimidin-7(6H)-one]
< 0.1 µM | C#C[C@@H](Nc1nc(C)nc2cc(=O)n(C34CC(C3)C4)cc12)c1cccc2c1CCC2(F)F [Compound 2, (R)-6-(bicyclo[1,1,1]pentan-1-yl)-4-((1-(1,1-difluoro-2,3-dihydro-1H-inden-4-yl)prop-2-yn-1-yl)amino)-2-methylpyrido[4,3-d]pyrimidin-7(6H)-one]
< 0.1 µM | C#C[C@@H](Nc1nc(C)nc2cc(=O)n(C3(C)CC3)cc12)c1cccc(C(C)(F)F)c1F [Compound 19, (R)-4-((1-(3-(1,1-difluoroethyl)-2-fluorophenyl)prop-2-yn-1-yl)amino)-2-methyl-6-(1-methylcyclopropyl)pyrido[4,3-d]pyrimidin-7(6H)-one]
< 0.1 µM | C#C[C@@H](Nc1nc(C)nc2cc(=O)n(C3(C)CCOC3)cc12)c1cccc(C(F)(F)F)c1C (stereo partly drawn) [Compound 7, 2-methyl-4-(((R)-1-(2-methyl-3-(trifluoromethyl)phenyl)prop-2-yn-1-yl)amino)-6-(3-methyltetrahydrofuran-3-yl)pyrido[4,3-d]pyrimidin-7(6H)-one]
0.1 to 0.2 µM | C#C[C@@H](Nc1nc(C)nc2cc(=O)n(C3(C(F)F)CC3)cc12)c1cccc(Br)c1F [Compound 41, (R)-4-((1-(3-bromo-2-fluorophenyl)prop-2-yn-1-yl)amino)-6-(1-(difluoromethyl)cyclopropyl)-2-methylpyrido[4,3-d]pyrimidin-7(6H)-one]
< 0.1 µM | C#C[C@@H](Nc1nc(C)nc2cc(=O)n(C3(C4CCOC4)CC3)cc12)c1cccc(C(F)(F)F)c1C (stereo partly drawn) [Compound 34, 2-methyl-4-(((R)-1-(2-methyl-3-(trifluoromethyl)phenyl)prop-2-yn-1-yl)amino)-6-(1-(tetrahydrofuran-3-yl)cyclopropyl)pyrido[4,3-d]pyrimidin-7(6H)-one]
< 0.1 µM | C#C[C@@H](Nc1nc(C)nc2cc(=O)n(C3(C(F)F)CC3)cc12)c1cccc(C(C)(F)F)c1F [Compound 25, (R)-4-((1-(3-(1,1-difluoroethyl)-2-fluorophenyl)prop-2-yn-1-yl)amino)-6-(1-(difluoromethyl)cyclopropyl)-2-methylpyrido[4,3-d]pyrimidin-7(6H)-one]
